Test results published in patent US8889729B2, “Compositions for treating amyloid associated diseases” (Tel Aviv University Future Technology Development L.P., priority 2004, dated 2014).

How the values were obtained:
Aβ 1-42 = target: T1, Aβ 1-42 (Homo sapiens, UniProt P05067); experiment: Thioflavin T fluorescence assay of Aβ 1-42 fibrillization (Example 2); assay type: biochemical; settings: for inhibition of β-amyloid polypeptide fibril formation: 50 μM compound, 5 μM Aβ 1-42, 24 hours at 37° C.; for concentration dependence of inhibition of fibril formation: Aβ1-42, fixed incubation time of 24 hours; for IC50: Aβ1-42 fibrillization, 24 hours, calculated by the curve equation, read-out: apparent IC50
T1 construct: Aβ 1-40 and Aβ 1-42, >98% pure) were purchased from Bachem; purchased Bachem (Bubendorf, Switzerland); host or cells: chemical synthesis
Protocol: (§1) Aβ solutions: Synthetic lyophilized β-amyloid polypeptides (Aβ 1-40 and Aβ 1-42, >98% pure) were purchased from Bachem (Bubendorf, Switzerland). A 100 μM Aβ stock solution was prepared by dissolving Aβ1-40 or Aβ1-42 in dimethylsulfoxide (DMSO) and sonicating the resulting solution during 1 minute to avoid pre-aggregation. Aβ solutions were prepared by immediate dilution with 10 mM phosphate-buffered saline (100 mM NaCl, 0.5 mM EDTA, pH 7.4) to a final concentration of 10 μM (containing 10% (v/v) DMSO).
(§2) Indole derivatives stock solutions were prepared by dissolving an indole derivative in DMSO, so as to achieve a concentration of 20 mM and then diluting the solution with 10 mM PBS buffer (100 mM NaCl, 0.5 mM EDTA, pH 7.4) to a final concentration of 100 μM (containing 0.5% (v/v) DMSO).
(§3) Thioflavin T fluorescence assay: Fibrillization of A[…] 1-42 polypeptide was monitored using a Thioflavin T (ThT) dye binding assay. A 10 μM Aβ solution (either Aβ1-40 or Aβ1-42) was prepared as described above and was immediately mixed with the indole derivative stock solutions (100 μM), so as to achieve a final concentration of 5 μM for Aβ and various concentrations of the indole derivative. For each measurement, ThT was added to a 0.1 ml sample, to give a final concentration of 0.3 μM ThT and 0.4 μM Aβ. The samples were incubated at 37° C. Fluorescence measurements, made after addition of the ThT solution to each sample at 37° C., were carried out using a Jobin Yvon FluoroMax-3 spectrometer (excitation 450 nm, 2.5 nm slit; emission 480 nm, 5 nm slit, integration time of 1 second). Background was subtracted from each sample. Each experiment was repeated in quadruplicate.
Inhibition of amyloid formation: The level of amyloid formation was detected using the above described Thioflavin T (ThT) dye binding assay. Fluorescence (relative intensity, measured in units of percent) of the ThT bound Aβ 1-42 remaining following 24 hours at 37° C., in the absence, and in the presence of 50 μM indole or indole derivative, was measured. Each measurement was recorded immediately after the fluorescence intensity reached a maximum value. The results obtained with representative indole derivatives, each representing a mean of four independent measurements along with an associated error bar representing a standard error, are graphically presented in FIG. 4.
Concentration Dependence of Indole Derivatives inhibition activity: To examine the inhibition efficiency of the indole derivatives, the concentration dependence of inhibition of fibril formation was studied. The fibrillization of Aβ1-42, with and without an indole derivative was measured using the ThT fluorescence assay described above at a fixed incubation time of 24 hours.

Aβ1-40 [1] = target: T2, Aβ1-40 (Homo sapiens, UniProt P05067); experiment: TEM ultrastructural analysis of Aβ1-40 samples from kinetic studies
T2 construct: Synthetic lyophilized β-amyloid polypeptides (Aβ 1-40 and Aβ 1-42, >98% pure); purchased Bachem (Bubendorf, Switzerland); host or cells: chemical synthesis
Protocol: Transmission Electron microscopy (TEM): A 10 μl sample of the ThT fluorescence assay was placed on a 400 mesh copper grid covered by carbon-stabilized Formvar film (SPI Supplies, West Chester, Pa.). After 1.5 minutes, excess fluid was removed and the grids were negatively stained for 2 minutes with 10 μl of 2% uranyl acetate solution. Excess fluid was removed and the samples were viewed using a JEOL 1200EX electron microscope operating at 80 kV. Ultrastructural Analysis of amyloid fibril formation: The effect of the indole derivatives on the ultrastructural properties of the assembled Aβ was first evaluated by TEM measurements. Thus, TEM analysis was performed with samples of Aβ1-40 obtained from the kinetic studies described above after incubation for 14 days.

Aβ1-40 [2] = target: T2, Aβ1-40; experiment: AFM structural analysis of Aβ1-40 samples from kinetic studies; settings: 50 μM compound, once control samples reached the polymerization phase
Protocol: Atomic force microscopy (AFM): For each experiment, a 60 μl sample of was taken for AFM measurement at three different time points correlating to the amyloidogenic kinetic curve, as detailed hereinafter. The sample was centrifuged for 1.5 minutes at 13,000 rpm and 40 μl of the supernatant was removed. The remaining 20 μl droplet of the solution was re-suspended and deposited onto freshly cleaved mica for 1.5 minutes. The substrate was washed with 160 μl of double-distilled H2O to reduce background and to eliminate salts and buffer contaminants. The mica samples were then dried at room temperature. At least four regions of the mica surface were examined to ensure that similar structures existed throughout the sample. AFM images were obtained using a Veeco NanoScope IV MultiMode AFM (Digital Instruments, Santa Barbara, USA) in tapping mode. Measurements were performed at a resonance frequency of about 321.4 kHz.
Additional structural analyses were performed using AFM measurements, performed with Aβ1-40 samples taken from the kinetic studies once the control samples reached the different fibrillogenesis phase.

PC12 cells = experiment: Aβ1-40 cytotoxicity on PC12 cells, MTT assay; assay type: cell-based; settings: for inhibitory effect on Aβ1-40 cytotoxicity: both assays (T=0 and after 7 days incubation); for elevation of viability rate of PC12 cells compared with control: 5 μM Aβ1-40, MTT after 24 hours
Protocol: Cell culture: PC12 pheochromocytoma cell line, a cultured benign tumor of the sympathetic nervous system, was routinely grown in Dulbecco's Modified Eagle Medium (DMEM) supplemented with 8% (v/v) fetal calf serum, 8% (v/v) horse serum, 100 U/ml penicillin, 100 U/ml streptomycin, and 2 mM L-glutamine (Biological industries, Israel). The cells were maintained at 37° C. in a humidified atmosphere containing 5% CO2. Cell cytotoxicity assay: PC-12 cells (3×10^5 cells/ml) were cultured in 96-well microplates (100 μl/well) and were incubated overnight at 37° C. The wells were then washed once with serum free-DMEM, so as to exclude the effect of the serum. To each well 100 μl of 5 μM Aβ1-40 (prepared from a stock solution of 0.5 mM in 10 mM NaOH) and an indole derivative at various concentrations were added. Each determination was made in quadruplicate. Following incubation for 24 hours at 37° C., cell viability was evaluated using the MTT assay (as described in Hansen et al. (1989) J. Immunol. Methods 119, 203-210). The effect of the indole derivatives on the formation of cytotoxic amyloid assemblies was determined by measuring the toxicity of the formed Aβ on pheochromocytoma cell line cultures (PC12) in the presence and absence of the indole derivatives. […] Cell viability was determined after 24 hours using the MTT assay. Cells incubated with only 5 μM Aβ1-40 served as the control.

Aβ 1-40 polypeptide [3] = target: T3, Aβ 1-40 polypeptide (Homo sapiens, UniProt P05067); experiment: Transmission electron microscopy of ThT assay samples (Example 1); settings: 10 μM compound, sample at about 192 hours
T3 construct: Recombinant β-amyloid (Aβ 1-40, >98% pure) polypeptide; purchased rPeptide (Athens Ga., USA)
Protocol: Transmission Electron Microscopy (TEM) Measurements: 10 μl samples from the ThT fluorescence assay were placed on 400-mesh copper grids (SPI supplies, West Chester Pa.) covered by carbon stabilized Formvar film. After 1 minute, excess fluid was removed, and the grids were negatively stained with 2% uranyl acetate in water for another two minutes. Microstructural features of the samples were viewed using a JEOL 1200EX electron microscope operating at 80 kV.
In order to obtain insight into the mechanism of inhibiting formation of β-amyloidpolypeptide type of amyloid fibrils, representative samples taken from the ThT fluorescence assay measurements described above after attainment of the plateau (at about 192 hours, FIG. 2), in the absence or presence of indole-3-carbinol, were viewed using electron microscopy.

Aβ 1-40 polypeptide [4] = target: T3, Aβ 1-40 polypeptide; experiment: Thioflavin T fluorescence assay of Aβ 1-40 fibrillization (Example 1); assay type: biochemical; settings: 10 μM compound
Protocol: Fibrillization of Aβ 1-40 polypeptide was monitored using a Thioflavin T (ThT) dye binding assay. […] Fluorescence measurements, made after addition of the ThT solution to each sample at 37° C., were carried out using a Jobin Yvon FluoroMax-3 spectrometer (excitation 450 nm, 2.5 nm slit; emission 480 nm, 5 nm slit, integration time of 1 second). Background was subtracted from each sample. The level of amyloid formation was detected using the above described Thioflavin T (ThT) dye binding assay.

Aβ1-40 [5] = target: T2, Aβ1-40; experiment: Kinetics of Aβ1-40 fibrillogenesis inhibition, ThT fluorescence assay; assay type: biochemical; settings: for effect on nucleation phase (lag phase) compared with control / effect on slope of growth curve (polymerization phase): 5 μM, 25 μM and 50 μM tested
Protocol: as §1, §2, §3
Kinetics Studies of Aβ1-40 Fibrillogenesis Inhibition: Aβ1-40, which has a slower fibrillogenesis rate [see, Jarrett et al. (1993) Biochemistry 32, 4693-4697] was used in these studies, in order to obtain better temporal resolution, assuming that a slower rate would allow more significant inhibition and a better understanding of the effect. 3-Hydroxyindole (denoted as 3HI), 4-hydroxyindole (denoted as 4HI) and indole-3-carbinol (denoted herein as I3C) were each added at concentrations of 5 μM, 25 μM, and 50 μM to a solution containing 5 μM of Aβ1-40 (prepared as described above) and the kinetics of Aβ1-40 fibrillogenesis inhibition was measured using the ThT fluorescence assay.

[6] = 50 μM compound, 14 days incubation
[7] = 50 μM compound, 5 μM Aβ1-40, endpoint of experiment, read-out: inhibition level at final equilibrium phase

T1 sequence (P05067 672-713 limits assumed): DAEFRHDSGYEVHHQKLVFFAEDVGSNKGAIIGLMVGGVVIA
T3 sequence (P05067 672-711 limits assumed): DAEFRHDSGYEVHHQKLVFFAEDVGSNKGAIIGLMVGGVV
T2 sequence (P05067 672-711 limits assumed): as above

inhibition of β-amyloid polypeptide fibril formation (Aβ 1-42)	concentration dependence of inhibition of fibril formation (Aβ 1-42)	IC50 (Aβ 1-42)	Compound	fibril ultrastructure by TEM (Aβ1-40 [1]; [6])	amyloid fibril formation by AFM (Aβ1-40 [2])	inhibitory effect on Aβ1-40 cytotoxicity (PC12 cells)	effect on nucleation phase (lag phase) compared with control (Aβ1-40 [5]; 5 μM Aβ1-40)	effect on slope of growth curve (polymerization phase) (Aβ1-40 [5]; 5 μM Aβ1-40)	inhibition at 50 µM (Aβ1-40 [5]; [7])	also measured
significantly reduced inhibition	–	–	Oc1cc2ccccc2[nH]1 [2-hydroxyindole]	–	–	–	–	–	–	–
significantly inhibited	dose-dependent inhibition pattern	~100 µM	Oc1c[nH]c2ccccc12 [3-hydroxyindole]	significant number of amorphous aggregates showing a congested form	small aggregates that interacted with the amyloid fibrils	no anti-cyclotoxic effect	no effect on the nucleation phase	dose-dependent effect	~60%	improvement of PC12 survival rate compared with control (PC12 cells; only at T=0 (solution added immediately), 5 μM Aβ1-40): about 25%; inhibition at 25 µM (Aβ1-40 [5]; 25 μM compound, 5 μM Aβ1-40, endpoint of experiment, read-out: inhibition level at final equilibrium phase): ~40%
significantly inhibited	dose-dependent inhibition pattern	~85 µM	Oc1cccc2[nH]ccc12 [4-hydroxyindole]	–	no fibrils	most significant inhibitory effect	–	–	–	fibril ultrastructure by TEM (Aβ1-40 [1]; 5 μM or more of compound): no amyloid fibrils; fibril ultrastructure by TEM (Aβ1-40 [1]; 25 μM compound, 14 days incubation): devoid of fibrils and contained only a minor amount of small fibrils; protective effect, concentration dependence (PC12 cells; 0.5 μM to 50 μM, 5 μM Aβ1-40, solution incubated 7 days): dose-dependent; minimum concentration required for significant inhibition (PC12 cells; 5 μM Aβ1-40, solution incubated 7 days): 2.5 µM; elevation of viability rate of PC12 cells compared with control (PC12 cells; 25 μM compound): about 25%; elevation of viability rate of PC12 cells compared with control (PC12 cells; 50 μM compound): about 25%; toxic effect of Aβ1-40 (PC12 cells; 50 μM compound, 5 μM Aβ1-40, solution incubated 7 days): completely blocked; effect on nucleation phase (lag phase) (Aβ1-40 [5]; 5 μM compound, 5 μM Aβ1-40): less significant; slope of growth curve (polymerization phase) (Aβ1-40 [5]; 5 μM compound, 5 μM Aβ1-40): the most sharp; inhibition at 5 µM (Aβ1-40 [5]; 5 μM compound, 5 μM Aβ1-40, endpoint of experiment, read-out: inhibition level at final equilibrium phase): ~60%; effect on nucleation phase (lag phase) (Aβ1-40 [5]; 25 μM compound, 5 μM Aβ1-40): significantly longer nucleation phase; inhibition level at final equilibrium phase (Aβ1-40 [5]; 25 μM compound, 5 μM Aβ1-40, endpoint of experiment): almost complete; effect on nucleation phase (lag phase) (Aβ1-40 [5]; 50 μM compound, 5 μM Aβ1-40): significantly longer nucleation phase; inhibition level at final equilibrium phase (Aβ1-40 [5]; 50 μM compound, 5 μM Aβ1-40, endpoint of experiment): almost complete; inhibition level at final equilibrium phase, comparison among compounds (Aβ1-40 [5]; all the tested concentrations): highest inhibition level
significantly reduced inhibition	–	–	Oc1ccc2[nH]ccc2c1 [5-hydroxyindole]	–	–	–	–	–	–	–

Compound	inhibition of β-amyloid polypeptide fibril formation (Aβ 1-42)	concentration dependence of inhibition of fibril formation (Aβ 1-42)	IC50 (Aβ 1-42)	fibril ultrastructure by TEM (Aβ1-40 [1]; [6])	amyloid fibril formation by AFM (Aβ1-40 [2])	inhibitory effect on Aβ1-40 cytotoxicity (PC12 cells)	effect on nucleation phase (lag phase) compared with control (Aβ1-40 [5]; 5 μM Aβ1-40)	effect on slope of growth curve (polymerization phase) (Aβ1-40 [5]; 5 μM Aβ1-40)	inhibition at 50 µM (Aβ1-40 [5]; [7])	also measured
OCc1c[nH]c2ccccc12 [indole-3-carbinol]	significantly inhibited	only at high concentrations and showed no dose-dependency	~200 µM	smaller amounts of amyloid fibril aggregates	small amounts of amyloid fibrils in the form of long wires	No significant inhibition of cytotoxicity	no effect on the nucleation phase	effect on the slope of the growth curve only at 50 μM	~50%	fibril morphology by electron microscopy (Aβ 1-40 polypeptide [3]): significantly shorter and less dense fiber type material; level of fluorescence at the plateau compared to non-inhibited Aβ 1-40 (Aβ 1-40 polypeptide [4]; 5 μM Aβ 1-40): about a third; time to attainment of fluorescence plateau (Aβ 1-40 polypeptide [4]; 5 μM Aβ 1-40, 37° C., without compound about 200 hours): about 300 hours; levels of ThT fluorescence following about 100 hours (Aβ 1-40 polypeptide [4]; 5 μM Aβ 1-40, remaining duration of assay): significantly lower levels of fluorescence; lag-time of fibrillization (Aβ 1-40 polypeptide [4]; 5 μM Aβ 1-40, control lag-phase about 100 hours): significantly extended
